How the values were obtained:
[1] = system: G4 sequences (telomere, MYC, KIT, rRNA oligos); test: Modified FRET assay, melting of G-quadruplex oligos; format: binding, human; conditions: FIG. 13C; COMPOUND I data at 6-hour incubation
Protocol: FRET assay and data analysis was performed as described previously and modified by using dual labeled (5′ FAM-3′ BHQ1) single-stranded oligos. Melting temperature of each oligo was assessed in the presence of vehicle DMSO or escalating concentrations of COMPOUND I, Fe(COMPOUND I)3, CX-5461, or TMPyP4 using a Roche LightCycler 96 [at 37° C. for 300 seconds followed by temperature increased in […] intervals up to 91° C. (25 steps) with 300-second total incubation time at each temperature]. Drug and oligo reaction mixes were analyzed immediately or incubated for 6 hours at room temperature and then analyzed. […] COMPOUND I data are presented for 6-hour time point.
The ability of COMPOUND I (parental monomeric form of the drug) and Fe(COMPOUND I)3 to bind and stabilize G4 sequences using a modified FRET assay was evaluated (FIGS. 21 and 22). TMPyP4, a well-known G4 ligand, and CX-5461, a clinical stage molecule recently reported to have G4-binding properties, were utilized as controls to assess the specificity of COMPOUND I and Fe(COMPOUND I)3 for G4-stabilizing activity.

Raji cells = test: Cytotoxicity study, MTS cell proliferation assay, 5 days; format: cell-based, human; conditions: concentrations up to 300 nM, FIG. 5C
Protocol: (§1) The human Burkitt lymphoma cell line Raji was obtained from the American Type Tissue Culture Collection and cultured in RPMI 1640 medium (ATCC) supplemented with 10% fetal bovine serum (ATCC,) at 37° C., 5% CO2. The COMPOUND I-resistant Raji (Raji/COMPOUND IR) cell line was generated by exposure to progressively higher concentrations of COMPOUND I over a period of 6 months. CAOV3 cells were obtained from ATCC and cultured in complete DMEM supplemented with 10% fetal bovine serum. MCF7 vector controlled and BRCA1 shRNA subclones were obtained from Dr. Simon Powell (Memorial Sloan-Kettering Cancer Center) and cultured in EMBM with 10% fetal bovine serum. MCF10A and hTERT-IMEC clones were obtained from Dr. Ben Ho Park (Johns Hopkins University). HCT116 BRCA2^+/+ cells and BRCA2^−/− cells were obtained from Dr. Samuel Aparicio (British Columbia Cancer Research Centre). PEO1 and PEO4 cells were obtained from Dr. Sharon Cantor (University of Massachusetts) and these cell lines were cultured under the same conditions as previously published. Sakai et al., Functional restoration of BRCA2 protein by secondary BRCA2 mutations in BRCA2-mutated ovarian carcinoma, Cancer Res. 2009; 69 (16):6381-6; Konishi et al., Mutation of a single allele of the cancer susceptibility gene BRCA1 leads to genomic instability in human breast epithelial cells, Proc. Natl. Acad. Sci. 2011; 108 (43):17773-8; Xu et al., CX-5461 is a DNA G-quadruplex stabilizer with selective lethality in BRCA1/2 deficient tumours, Nature Communications 2017; 8:14432, all of which are hereby incorporated by reference.
(§2) Cells were plated and treated with the indicated drugs in 96-well plates for 5 days. Cell viability was measured using CellTiter 96 AQueous one solution (MTS) cell proliferation assay purchased from Promega, and IC50 values were calculated using GraphPad Prism 6 Software.

Raji/COMPOUND IR cells = test: as above; format: cell-based, human
Protocol: as §1, §2

[2] = system: MCF10A BRCA1-het #1 and #2 clones vs control; test: Sensitivity of BRCA1-proficient and -deficient isogenic clones; format: cell-based, human; conditions: FIG. 3A
Protocol: as §2
(§3) The finding that COMPOUND I produced DNA damage led to the investigation of whether cells deficient in homologous recombination were hypersensitive to this drug. The hypothesis that there would be synthetic lethality between COMPOUND I and BRCA1 deficiency using isogenic pairs of BRCA1-proficient and -deficient human cell lines was tested. […] The conclusion that BRCA1-deficient cells are hypersensitive to COMPOUND I was further supported by the results obtained in MCF7 E7 cells in which BRCA1 expression is stably knocked down by the expression of an shRNAi. […] Whether BRCA2-deficient cells are more sensitive to COMPOUND I was tested using the BRCA2-proficient and BRCA2-deficient ovarian cancer cell lines, PEO4 and PEO1, respectively. PEO1 is BRCA2-deficient and sensitive to cisplatin and a poly(ADP-ribose) polymerase inhibitor AG14361. PEO4 was derived from ascites at the time of relapse with cisplatin resistance and contains a secondary mutation that restores BRCA2 function. […] Thus, loss of either BRCA1 or BRCA2 function renders malignant cells hypersensitive to COMPOUND I.

[3] = system: hTERT-IMEC BRCA1 knock-in clone; test: as above; format: cell-based, human; conditions: FIG. 3B
Protocol: as §2, §3

[4] = system: PEO4 and PEO1 ovarian cancer cell lines; test: Sensitivity of BRCA2-proficient and -deficient cells; format: cell-based; conditions: FIG. 3D
Protocol: as §2, §3

For Cc1cnc(CNC(=O)c2c(=O)c3ccc(N4CCCN(C)CC4)nc3n3c2sc2ccccc23)cn1 [CX-5461], the “stabilization of G4 sequences (ΔT1/2)” value [1] was “potent stabilizer of all G4 sequences tested”.

For COc1ccc2c3c([nH]c2c1)[C@H](CC(C)C)N1C(=O)[C@H](CCC(=O)OC(C)(C)C)NC(=O)[C@@H]1C3 [Ko143, reference compound], the “toxicity of Ko143 alone” value (Raji cells) was “not toxic” and the “toxicity of Ko143 alone” value (Raji/COMPOUND IR cells; concentrations up to 300 nM, FIG. 5C) was “not toxic”.

With C[n+]1ccc(-c2c3nc(c(-c4cc[n+](C)cc4)c4ccc([nH]4)c(-c4cc[n+](C)cc4)c4ccc([nH]4)c(-c4cc[n+](C)cc4)c4nc2C=C4)C=C3)cc1 [TMPyP4] the “stabilization of G4 sequences (ΔT1/2)” value [1] was “stabilized all G4 motifs except the G4 of the KIT gene promoter”.

In the case of N.N.O=C([O-])C1(C(=O)[O-])CCC1.[Pt+2] [carboplatin, reference compound], the “sensitivity of Raji/COMPOUND IR cells relative to Raji” value (Raji/COMPOUND IR cells) is reported as “significantly cross-resistant”.

In the case of COc1cc([C@@H]2c3cc4c(cc3[C@@H](O[C@@H]3O[C@@H]5CO[C@@H](C)O[C@H]5[C@H](O)[C@H]3O)[C@H]3COC(=O)[C@H]23)OCO4)cc(OC)c1O [etoposide, reference compound], the “sensitivity of Raji/COMPOUND IR cells relative to Raji” value (Raji/COMPOUND IR cells) is reported as “hypersensitive”.

For O=C(c1cc(Cc2n[nH]c(=O)c3ccccc23)ccc1F)N1CCN(C(=O)C2CC2)CC1 [olaparib, reference compound], the “sensitivity of BRCA1-het knockin clones vs control” value [2] was “more sensitive to olaparib”, the “sensitivity of BRCA1 2-bp knock-in clone” value [3] was “hypersensitive to both olaparib and COMPOUND I” and the “effect of restoration of BRCA2 function (PEO4 vs PEO1)” value [4] was “increased resistance”.

In the case of CC[C@@]1(O)C(=O)OCc2c1cc1n(c2=O)Cc2cc3c(CN(C)C)c(O)ccc3nc2-1 [topotecan, reference compound], the “cross-resistance of Raji/COMPOUND IR cells” value (Raji/COMPOUND IR cells; vs Raji) is reported as 3 fold and the “effect of Ko143 on topotecan resistance” value (Raji/COMPOUND IR cells; with Ko143, FIG. 5E) is reported as “reversed this resistance completely”.
